Assay [1] deals with T1, PI3Kα H1047R in T47D cells (Homo sapiens, UniProt P42336, H1047R).
T1 construct: endogenous in cells; host or cells: T47D
Put plainly: PI3Kα cellular assay: T47D pAKT S473 HTRF. Type of assay: cell-based. As to conditions: for T47D pAKT S473 HTRF IC50 (H1047R): T47D (H1047R) selectivity over SKBR3 (WT): T47D (H1047R) versus SKBR3 (WT) cells; for IC50: T47D cells (H1047R), serum starved, 1 hr compound, 20 ng/ml EGF 10 min. Here is the method:
PI3Kα cellular assay experimental procedure: SKBR3 or T47D cells are seeded in DMEM containing 10% FBS at 25 k cells/well into 96-well cell culture format. Cells are incubated overnight at 37° C. in a 5% CO2 incubator and the following day cell media is aspirated, adherent cells are washed 1× with room temperature PBS prior to serum-free media application. Cells are returned to 37° C. 5% CO2 incubator and incubated a further 16 hrs. Compounds are added to serum starved adherent cells with a top dose of 10,000 nM and 3× multiple dose reductions for a minimum dose of 0.5 nM diluted in DMSO. Cell/compound incubation continues for 1 hr in a 37° C., 5% CO2 incubator prior to 10 minute PIK3CA stimulation with 20 ng/ml EGF. Cells treated with 0.1% DMSO and 20 ng/mL EGF are employed as negative control, cells treated with 10 uM Alpelisib and 20 ng/mL EGF are employed as a positive control. After 10 mins, plates are removed from incubator and cells are lysed with buffer and shaking 45 minutes. 20 μL of lysate is transferred to an opti-384 plate and 2.5 μl of Phospho-AKT d2 antibody with 2.5 μl of Phospho-AKT Eu Cryptate solution in the detection buffer are added to each well. 384 well plate is left overnight at room temperature before reading HTRF on an Envision plate reader.
A general note: TR-FRET usually uses a lanthanide donor and a delayed reading to cut background.

The target in assay [2] is PI3K H1047R (Homo sapiens, UniProt P42336, H1047R). Put plainly: PI3K H1047R ADP-Glo (PI/PS). The following applies: for IC50: PI/PS substrate. More on the design: PI3K H1047R ADP-Glo (PI/PS) IC50: H1047R Selectivity: reference not given here. Type of assay: biochemical. (In general: ADP-Glo turns the ADP formed in a reaction into a luminescent signal.)

Some results are limits rather than exact numbers.

Chain of PI3K H1047R (P42336 whole entry H1047R): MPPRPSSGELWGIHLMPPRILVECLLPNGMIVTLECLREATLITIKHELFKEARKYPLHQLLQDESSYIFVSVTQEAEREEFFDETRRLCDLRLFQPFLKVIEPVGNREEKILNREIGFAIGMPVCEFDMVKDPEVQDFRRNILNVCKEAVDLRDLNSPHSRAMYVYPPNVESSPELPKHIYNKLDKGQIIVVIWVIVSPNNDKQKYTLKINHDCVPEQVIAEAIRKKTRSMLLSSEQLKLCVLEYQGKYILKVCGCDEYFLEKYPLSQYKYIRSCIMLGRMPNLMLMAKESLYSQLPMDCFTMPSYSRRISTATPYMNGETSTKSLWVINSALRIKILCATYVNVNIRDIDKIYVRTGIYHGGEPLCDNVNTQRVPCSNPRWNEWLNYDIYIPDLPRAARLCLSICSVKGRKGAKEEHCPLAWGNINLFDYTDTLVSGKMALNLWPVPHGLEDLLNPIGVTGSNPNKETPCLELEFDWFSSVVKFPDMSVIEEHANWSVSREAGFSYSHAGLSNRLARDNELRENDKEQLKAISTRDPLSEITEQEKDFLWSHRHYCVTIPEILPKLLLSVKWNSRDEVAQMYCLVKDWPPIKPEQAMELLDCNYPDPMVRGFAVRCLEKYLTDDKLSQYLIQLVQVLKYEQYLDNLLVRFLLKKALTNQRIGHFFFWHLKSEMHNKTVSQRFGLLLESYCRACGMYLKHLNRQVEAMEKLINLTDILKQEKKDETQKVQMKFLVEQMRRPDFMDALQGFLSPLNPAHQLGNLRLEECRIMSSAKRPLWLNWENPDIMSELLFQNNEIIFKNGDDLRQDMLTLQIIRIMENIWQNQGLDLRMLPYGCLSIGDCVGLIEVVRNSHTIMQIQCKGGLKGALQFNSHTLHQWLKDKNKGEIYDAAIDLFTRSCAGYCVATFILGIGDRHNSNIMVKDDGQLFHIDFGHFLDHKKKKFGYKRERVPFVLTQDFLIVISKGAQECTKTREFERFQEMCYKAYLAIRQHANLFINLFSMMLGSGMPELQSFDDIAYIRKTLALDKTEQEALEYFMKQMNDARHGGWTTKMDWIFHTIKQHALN
Chain of PI3K H1047R (P27986 whole entry partner): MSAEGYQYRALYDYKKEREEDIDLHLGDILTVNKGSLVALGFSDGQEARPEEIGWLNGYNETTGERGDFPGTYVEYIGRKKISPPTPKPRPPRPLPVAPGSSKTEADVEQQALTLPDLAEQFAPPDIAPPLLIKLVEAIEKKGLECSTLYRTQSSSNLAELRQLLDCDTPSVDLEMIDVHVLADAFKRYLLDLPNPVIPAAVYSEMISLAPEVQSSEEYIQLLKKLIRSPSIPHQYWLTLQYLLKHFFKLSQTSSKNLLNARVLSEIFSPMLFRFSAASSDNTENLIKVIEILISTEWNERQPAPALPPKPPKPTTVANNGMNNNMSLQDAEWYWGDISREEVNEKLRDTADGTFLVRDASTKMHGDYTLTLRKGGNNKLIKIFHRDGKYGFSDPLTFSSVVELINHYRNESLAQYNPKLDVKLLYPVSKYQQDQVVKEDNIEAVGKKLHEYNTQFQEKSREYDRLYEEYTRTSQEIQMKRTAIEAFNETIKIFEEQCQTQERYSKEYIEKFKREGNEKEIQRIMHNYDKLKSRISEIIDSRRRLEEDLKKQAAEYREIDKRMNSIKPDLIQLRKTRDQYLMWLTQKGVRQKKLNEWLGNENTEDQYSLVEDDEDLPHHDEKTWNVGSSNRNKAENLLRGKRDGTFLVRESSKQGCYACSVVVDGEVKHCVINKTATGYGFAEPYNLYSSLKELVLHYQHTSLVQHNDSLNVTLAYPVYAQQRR
T1 sequence (P42336 whole entry H1047R): as the sequence (P42336 whole entry H1047R) above
T1 sequence (P27986 whole entry partner): as the sequence (P27986 whole entry partner) above

Usually IC50 stands for the concentration at which inhibition is half-maximal. Take `Cc1cc(C(C)Nc2ccccc2C(=O)O)c2cc(N3Cc4ccccc4C3)nc(O)c2c1` (centres unmarked) [Compound 51]: in assay [1], the “T47D pAKT S473 HTRF IC50 (H1047R): T47D (H1047R) selectivity over SKBR3 (WT)” value was “A (A denotes >20-fold)” and the IC50 was below 750 nM. Further, in assay [2], the “PI3K H1047R ADP-Glo (PI/PS) IC50: H1047R Selectivity” value was “A (A denotes >20-fold)” and the IC50 was below 1000 nM.

As for `Cc1cc(C(C)Nc2ccccc2C(=O)O)c2nc(N3CCC(C)(C)CC3)ncc2c1` (centres unmarked) [Compound 10], in assay [1], the “T47D pAKT S473 HTRF IC50 (H1047R): T47D (H1047R) selectivity over SKBR3 (WT)” value is on record as “A (A denotes >20-fold)” and the IC50 is below 750 nM. In addition, in assay [2], the “PI3K H1047R ADP-Glo (PI/PS) IC50: H1047R Selectivity” value was “A (A denotes >20-fold)” and the IC50 is below 1000 nM.

With `Cc1cc([C@@H](C)Nc2ccccc2C(=O)O)c2nc(-c3ccc4c(c3)c(C)nn4C)n(C)c(=O)c2c1` [Compound 41], in assay [1], the “T47D pAKT S473 HTRF IC50 (H1047R): T47D (H1047R) selectivity over SKBR3 (WT)” value is on record as “C (C denotes ≤5-fold)” and the IC50 is at least 2000 nM. The compound further gave an IC50 in assay [2] of at least 10000 nM.

For `Cc1cc(C(C)Nc2ccccc2C(=O)O)c2nc(-c3ccc(F)cc3)n(C)c(=O)c2c1` (centres unmarked) [Compound 38], in assay [1], the “T47D pAKT S473 HTRF IC50 (H1047R): T47D (H1047R) selectivity over SKBR3 (WT)” value is recorded as “A (A denotes >20-fold)” and the IC50 is below 750 nM. In addition, in assay [2], the “PI3K H1047R ADP-Glo (PI/PS) IC50: H1047R Selectivity” value was “A (A denotes >20-fold)” and the IC50 is below 1000 nM.

Turning to `Cc1cc(C(C)Nc2ccccc2C(=O)O)c2nc(N3CCC(C)(C)CC3)nc(C#N)c2c1` (centres unmarked) [Compound 26, 2-((1-(4-cyano-2-(4,4-dimethylpiperidin-1-yl)-6-methylquinazolin-8-yl)ethyl)amino)benzoic acid], in assay [1], the “T47D pAKT S473 HTRF IC50 (H1047R): T47D (H1047R) selectivity over SKBR3 (WT)” value is “C (C denotes ≤5-fold)” and the IC50 was at least 2000 nM. Moreover, in assay [2], the “PI3K H1047R ADP-Glo (PI/PS) IC50: H1047R Selectivity” value is given as “C (C denotes ≤5-fold)” and the IC50 was at least 10000 nM.

For `Cc1cc(C(C)Nc2ccccc2C(=O)O)c2cc(-c3ccc4c(c3)c(C)nn4C)ncc2c1` (centres unmarked) [Compound 88], in assay [1], the “T47D pAKT S473 HTRF IC50 (H1047R): T47D (H1047R) selectivity over SKBR3 (WT)” value was “A (A denotes >20-fold)” and the IC50 was below 750 nM. In assay [2], the “PI3K H1047R ADP-Glo (PI/PS) IC50: H1047R Selectivity” value is listed as “A (A denotes >20-fold)” and the IC50 is below 1000 nM.

As for `Cc1cc(C(C)Nc2ccccc2C(=O)O)c2cc(-c3ccnc(C4CC4)c3)nc(C(N)=O)c2c1` (centres unmarked) [Compound 73], in assay [1], the “T47D pAKT S473 HTRF IC50 (H1047R): T47D (H1047R) selectivity over SKBR3 (WT)” value is given as “A (A denotes >20-fold)” and the IC50 is below 750 nM. Moreover, in assay [2], the “PI3K H1047R ADP-Glo (PI/PS) IC50: H1047R Selectivity” value is “A (A denotes >20-fold)” and the IC50 was below 1000 nM.

With `Cc1cc([C@@H](C)Nc2ccccc2C(=O)O)c2cc(N3Cc4ccccc4C3)ncc2c1` [Compound 81], in assay [1], the “T47D pAKT S473 HTRF IC50 (H1047R): T47D (H1047R) selectivity over SKBR3 (WT)” value is recorded as “A (A denotes >20-fold)” and the IC50 was below 750 nM. For the same compound, in assay [2], the “PI3K H1047R ADP-Glo (PI/PS) IC50: H1047R Selectivity” value is given as “A (A denotes >20-fold)” and the IC50 is below 1000 nM.

Take `Cc1cc(C(C)Nc2ccccc2C(=O)O)c2nc(-c3cc(C)c4oc(=O)[nH]c4c3)ncc2c1` (centres unmarked) [Compound 5]: in assay [1], the “T47D pAKT S473 HTRF IC50 (H1047R): T47D (H1047R) selectivity over SKBR3 (WT)” value is given as “B (B denotes 20-fold≥value>5-fold)” and the IC50 is 750 to 2000 nM. In addition, the IC50 in assay [2] was at least 10000 nM.

In the case of `Cc1cc([C@H](C)Nc2ccccc2C(=O)O)c2cc(-c3ccc4c(c3)c(C)nn4C)n(C)c(=O)c2c1` [Compound 85], in assay [1], the “T47D pAKT S473 HTRF IC50 (H1047R): T47D (H1047R) selectivity over SKBR3 (WT)” value is given as “B (B denotes 20-fold≥value>5-fold)” and the IC50 is at least 2000 nM. Moreover, in assay [2], the “PI3K H1047R ADP-Glo (PI/PS) IC50: H1047R Selectivity” value was “C (C denotes ≤5-fold)” and the IC50 lay in the range of 1000 to 10000 nM.

Consider `Cc1cc(C(C)Nc2ccccc2C(=O)O)c2cc(-c3ccnc(C4CC4)c3)n(C)c(=O)c2c1` (centres unmarked) [Compound 82], for which, in assay [1], the “T47D pAKT S473 HTRF IC50 (H1047R): T47D (H1047R) selectivity over SKBR3 (WT)” value is “A (A denotes >20-fold)” and the IC50 was below 750 nM. In addition, in assay [2], the “PI3K H1047R ADP-Glo (PI/PS) IC50: H1047R Selectivity” value is “A (A denotes >20-fold)” and the IC50 was below 1000 nM.

As for `Cc1cc([C@H](C)Nc2ccccc2C(=O)O)c2cc(-c3ccc(F)cc3)n(C)c(=O)c2c1` [Compound 75], in assay [1], the “T47D pAKT S473 HTRF IC50 (H1047R): T47D (H1047R) selectivity over SKBR3 (WT)” value is reported as “B (B denotes 20-fold≥value>5-fold)” and the IC50 lay within 750 to 2000 nM. The IC50 in assay [2] was at least 10000 nM.

Regarding `Cc1cc([C@@H](C)Nc2ccccc2C(=O)O)c2nc(-c3ccc(F)cc3)n(C)c(=O)c2c1` (single isomer, unassigned) [Compound 32], in assay [1], the “T47D pAKT S473 HTRF IC50 (H1047R): T47D (H1047R) selectivity over SKBR3 (WT)” value was “A (A denotes >20-fold)” and the IC50 is below 750 nM. Besides, in assay [2], the “PI3K H1047R ADP-Glo (PI/PS) IC50: H1047R Selectivity” value was “A (A denotes >20-fold)” and the IC50 is below 1000 nM.

For `Cc1cc([C@H](C)Nc2ccccc2C(=O)O)c2cc(-c3ccc4c(c3)c(C)nn4C)ncc2c1` [Compound 83], in assay [1], the “T47D pAKT S473 HTRF IC50 (H1047R): T47D (H1047R) selectivity over SKBR3 (WT)” value is recorded as “C (C denotes ≤5-fold)” and the IC50 is at least 2000 nM. Moreover, in assay [2], the “PI3K H1047R ADP-Glo (PI/PS) IC50: H1047R Selectivity” value is “C (C denotes ≤5-fold)” and the IC50 was at least 10000 nM.

Source of the values: patent US20260130925A1, “METHODS FOR TREATING CANCER” (Genesis Molecular AI, Inc., priority 2022, published 2026).
